Assay results published in the supplement of paper PMC11061612.

Legend:
Assay in all cases: combination Emax (second highest fraction inhibited in the dose matrix, 72 h); higher = more inhibition; extreme values may be limits of the assay
GI-ME-N (Neuroblastoma) = tested on: GI-ME-N (Neuroblastoma)
Method in brief: (§1)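 Cell lines grown in DMEM/F12 or RPMI with 10% FBS were plated in 1536-well plates and held 24 hours at 37°C, 5% CO2 before 72 hours of exposure to two-drug dose matrices, with DMSO typically at 0.2%. CellTiter-Glo 2.0 luminescence gave viability, which was converted to inhibition. Vehicle wells were set to 0 and blank wells to 1. Combination Emax is the second-highest inhibition in the matrix, and Bliss excess is the observed combination effect minus the expected EA + EB − EA·EB, where EA and EB are the single-agent effects.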

[1] = tested on: NCI-H2066 (Squamous Cell Lung Carcinoma)
Method in brief: as §1

[2] = tested on: NCI-H1693 (Lung Adenocarcinoma)
Method in brief: as §1

[3] = tested on: MDST8 (Colorectal Carcinoma)
Method in brief: as §1

[4] = tested on: SK-MG-1 (Low Grade Glioma)
Method in brief: as §1

[5] = tested on: NCI-H1650 (Lung Adenocarcinoma)
Method in brief: as §1

[6] = tested on: NCI-H64 (Small Cell Lung Carcinoma)
Method in brief: as §1

U-2-OS (Osteosarcoma) = tested on: U-2-OS (Osteosarcoma)
Method in brief: as §1

[7] = tested on: KARPAS-422 (B-Cell Non-Hodgkin's Lymphoma)
Method in brief: as §1

[8] = tested on: ECC10 (Gastric Carcinoma)
Method in brief: as §1

[9] = tested on: CCK-81 (Colorectal Carcinoma)
Method in brief: as §1

PA-1 (Ovarian Carcinoma) = tested on: PA-1 (Ovarian Carcinoma)
Method in brief: as §1

[10] = tested on: COLO-824 (Breast Carcinoma)
Method in brief: as §1

LN-405 (Glioblastoma) = tested on: LN-405 (Glioblastoma)
Method in brief: as §1

[11] = tested on: COLO-320-HSR (Colorectal Carcinoma)
Method in brief: as §1

[12] = tested on: SK-MES-1 (Squamous Cell Lung Carcinoma)
Method in brief: as §1

[13] = tested on: NCI-H1666 (Lung Adenocarcinoma)
Method in brief: as §1

[14] = tested on: NCI-H2141 (Small Cell Lung Carcinoma)
Method in brief: as §1

[15] = tested on: NCI-H1581 (Non-Small Cell Lung Carcinoma)
Method in brief: as §1

NCI-H2591 (Mesothelioma) = tested on: NCI-H2591 (Mesothelioma)
Method in brief: as §1

Compound | combination Emax (GI-ME-N (Neuroblastoma)) | combination Emax [1] | combination Emax [2] | combination Emax [3] | combination Emax [4] | combination Emax [5] | combination Emax [6] | combination Emax (U-2-OS (Osteosarcoma)) | combination Emax [7] | combination Emax [8] | combination Emax [9] | combination Emax (PA-1 (Ovarian Carcinoma)) | combination Emax [10] | combination Emax (LN-405 (Glioblastoma)) | combination Emax [11] | combination Emax [12] | combination Emax [13] | combination Emax [14] | combination Emax [15] | combination Emax (NCI-H2591 (Mesothelioma))
CC(=O)Nc1cccc(-n2c(=O)n(C3CC3)c(=O)c3c(Nc4ccc(I)cc4F)n(C)c(=O)c(C)c32)c1 [Trametinib] + Cc1nc(-c2cn3c(n2)-c2ccc(-c4cnn(C(C)(C)C(N)=O)c4)cc2OCC3)n(C(C)C)n1 [Taselisib] (first compound max 1 µM, 7x7, partner max 10 µM) | 0.77 | 0.728 | 0.469 | 0.865 | 0.85 | 0.695 | 0.477 | 1 | 0.63 | 0.989 | 0.98 | 1 | 0.976 | 0.76 | 0.338 | 1 | 0.988 | 0.317 | 0.586 | 0.543
CC1(C)CCC(CN2CCN(c3ccc(C(=O)NS(=O)(=O)c4ccc(NCC5CCOCC5)c([N+](=O)[O-])c4)c(Oc4cnc5[nH]ccc5c4)c3)CC2)=C(c2ccc(Cl)cc2)C1 [Venetoclax] + C1CN(CCC1(C(=O)N[C@@H](CCO)C2=CC=C(C=C2)Cl)N)C3=NC=NC4=C3C=CN4 [Capivasertib] (first compound max 1 µM, 7x7, partner max 3 µM) | 0.24 | 0.424 | 0.197 | 0.317 | 0.437 | 0.164 | 0.361 | 0.263 | 0.917 | 0.959 | 0.156 | 0.636 | 0.881 | 0.429 | 0.0935 | 0.202 | 0.287 | 0.249 | 0.0621 | 0.174
CC1(C)CCC(CN2CCN(c3ccc(C(=O)NS(=O)(=O)c4ccc(NCC5CCOCC5)c([N+](=O)[O-])c4)c(Oc4cnc5[nH]ccc5c4)c3)CC2)=C(c2ccc(Cl)cc2)C1 [Venetoclax] + C=CCn1c(=O)c2cnc(Nc3ccc(N4CCN(C)CC4)cc3)nc2n1-c1cccc(C(C)(C)O)n1 [AZD1775] (first compound max 1 µM, partner max 1 µM) | 0.272 | 0.203 | 0.308 | 0.378 | 0.625 | 0.433 | 0.942 | 0.679 | 0.995 | 0.989 | 0.784 | 0.847 | 0.967 | 0.326 | 0.801 | 0.565 | 0.343 | 0.792 | 0.32 | 0.279
CC1(C)CCC(CN2CCN(c3ccc(C(=O)NS(=O)(=O)c4ccc(NCC5CCOCC5)c([N+](=O)[O-])c4)c(Oc4cnc5[nH]ccc5c4)c3)CC2)=C(c2ccc(Cl)cc2)C1 [Venetoclax] + CCN(CCO)CCCOc1ccc2c(Nc3cc(CC(=O)Nc4cccc(F)c4)[nH]n3)ncnc2c1 [AZD2811] (first compound max 1 µM, 7x7, partner max 1 µM) | 0.186 | 0.226 | 0.182 | 0.306 | 0.464 | 0.207 | 0.792 | 0.257 | 0.922 | 1 | 0.199 | 0.527 | 1 | 0.276 | 0.156 | 0.223 | 0.265 | 0.482 | 0.266 | 0.196
CC1(C)CCC(CN2CCN(c3ccc(C(=O)NS(=O)(=O)c4ccc(NCC5CCOCC5)c([N+](=O)[O-])c4)c(Oc4cnc5[nH]ccc5c4)c3)CC2)=C(c2ccc(Cl)cc2)C1 [Venetoclax] + CN(C)CCCOc1ccc(-c2ccc3ncc4c(c3c2)n(C2CCOCC2)c(=O)n4C)cn1 [AZD0156] (first compound max 1 µM, 7x7, partner max 1 µM) | 0.226 | 0.156 | 0.221 | 0.199 | 0.275 | 0.104 | 0.25 | 0.188 | 0.873 | 0.963 | 0.244 | 0.3 | 0.783 | 0.306 | 0.198 | 0.216 | 0.225 | 0.148 | 0.182 | 0.161
CC1(C)CCC(CN2CCN(c3ccc(C(=O)NS(=O)(=O)c4ccc(NCC5CCOCC5)c([N+](=O)[O-])c4)c(Oc4cnc5[nH]ccc5c4)c3)CC2)=C(c2ccc(Cl)cc2)C1 [Venetoclax] + COc1cc(Nc2ncc3c(n2)-c2ccc(Cl)cc2C(c2c(F)cccc2OC)=NC3)ccc1C(=O)O [Alisertib] (first compound max 1 µM, 7x7, partner max 10 µM) | 0.327 | 0.285 | 0.344 | 0.329 | 0.365 | 0.493 | 0.692 | 0.4 | 0.858 | 0.963 | 0.318 | 0.927 | 1 | 0.513 | 0.296 | 0.4 | 0.501 | 0.518 | 0.698 | 0.298
CC1(C)CCC(CN2CCN(c3ccc(C(=O)NS(=O)(=O)c4ccc(NCC5CCOCC5)c([N+](=O)[O-])c4)c(Oc4cnc5[nH]ccc5c4)c3)CC2)=C(c2ccc(Cl)cc2)C1 [Venetoclax] + C[C@@H]1COCCN1C2=NC(=NC(=C2)C3(CC3)[S@](=N)(=O)C)C4=C5C=CNC5=NC=C4 [AZD6738] (first compound max 1 µM, 7x7, partner max 10 µM) | 0.459 | 0.384 | 0.372 | 0.777 | 0.535 | 0.402 | 0.882 | 0.586 | 0.956 | 0.98 | 0.846 | 0.827 | 0.944 | 0.483 | 0.561 | 0.75 | 0.424 | 0.637 | 0.451 | 0.329
CC1(C)CCC(CN2CCN(c3ccc(C(=O)NS(=O)(=O)c4ccc(NCC5CCOCC5)c([N+](=O)[O-])c4)c(Oc4cnc5[nH]ccc5c4)c3)CC2)=C(c2ccc(Cl)cc2)C1 [Venetoclax] + C[C@@H](Nc1cc(F)cc(F)c1)c1cc(C(=O)N(C)C)cc2c(=O)cc(N3CCOCC3)oc12 [AZD8186] (first compound max 1 µM, 7x7, partner max 3 µM) | 0.165 | 0.215 | 0.129 | 0.0955 | 0.387 | 0.255 | 0.335 | 0.139 | 0.98 | 0.969 | 0.0792 | 0.682 | 0.921 | 0.335 | 0.135 | 0.257 | 0.339 | 0.361 | 0.182 | 0.118
CC1(C)CCC(CN2CCN(c3ccc(C(=O)NS(=O)(=O)c4ccc(NCC5CCOCC5)c([N+](=O)[O-])c4)c(Oc4cnc5[nH]ccc5c4)c3)CC2)=C(c2ccc(Cl)cc2)C1 [Venetoclax] + Cc1cc2ncnn2cc1Nc1ncc2c(n1)n(C1CCOCC1)c(=O)n2C [AZD7648] (first compound max 1 µM, 7x7, partner max 10 µM) | 0.186 | 0.273 | 0.26 | 0.245 | 0.28 | 0.108 | 0.255 | 0.206 | 0.897 | 0.955 | 0.173 | 0.473 | 0.766 | 0.373 | 0.174 | 0.155 | 0.232 | 0.178 | 0.222 | 0.315
CC1(C)CCC(CN2CCN(c3ccc(C(=O)NS(=O)(=O)c4ccc(NCC5CCOCC5)c([N+](=O)[O-])c4)c(Oc4cnc5[nH]ccc5c4)c3)CC2)=C(c2ccc(Cl)cc2)C1 [Venetoclax] + Cn1cnc2c(F)c(Nc3ccc(Br)cc3Cl)c(C(=O)NOCCO)cc21 [Selumetinib] (first compound max 1 µM, 7x7, partner max 3 µM) | 0.24 | 0.191 | 0.26 | 0.646 | 0.185 | 0.0531 | 0.239 | 0.169 | 0.793 | 0.937 | 0.369 | 0.318 | 0.829 | 0.182 | 0.083 | 0.345 | 0.575 | 0.159 | 0.32 | 0.171
